Key:
Assay in all cases: RBC HotSpot Kinase Assay (33P-ATP filter-binding)
Format in all cases: biochemical
Conditions in all cases: 10 μM ATP
[1] = biological target: FGFR3 (Homo sapiens (Human), UniProt P22607)
Protocol: (§1) Biochemical Assay. […] The reaction buffer was 20 mM HEPES (pH 7.5), 10 mM MgCl2, 1 mM EGTA, 0.02% Brij35, 0.02 mg/mL BSA, 0.1 mM Na3VO4, 2 mM DTT, 1% DMSO. The required cofactors are added individually to each kinase reaction. […] The substrate was Poly (Glu, Tyr) sodium salt and the concentration was 0.2 mg/mL (Sigma; cat. #P7244) where the Glu:Tyr (4:1) molecular weight was 5,000-20,000. […] Reactions were carried out at 10 μM ATP. The serial dilution was conducted by Integra Viaflo Assist in DMSO. The reaction procedure was conducted as follows: • 1) Prepare substrate in freshly prepared Reaction Buffer. • 2) MnCl2 (2 mM) was added as a co-factor listed as above. • 3) Deliver kinase into the substrate solution and gently mix. • 4) Deliver compounds in 100% DMSO into the kinase reaction mixture by Acoustic technology (Echo550; nanoliter range), incubate for 20 min at RT. • 5) Deliver 33P-ATP (specific activity 10 μCi/μL) into the reaction mixture to initiate the reaction. • 6) Incubate for 2 hours at RT. • 7) Detect radioactivity by the filter-binding method. • 8) Kinase activity data was expressed as the percent remaining kinase activity in the test sample compared to vehicle (DMSO) reactions.

[2] = biological target: FGFR4 (Homo sapiens (Human), UniProt P22455)
Protocol: as §1

[3] = biological target: FGFR2 (Homo sapiens (Human), UniProt P21802)
Protocol: as §1

[4] = biological target: FGFR1 (Homo sapiens (Human), UniProt P11362)
Chain of FGFR1 (P11362 22-822): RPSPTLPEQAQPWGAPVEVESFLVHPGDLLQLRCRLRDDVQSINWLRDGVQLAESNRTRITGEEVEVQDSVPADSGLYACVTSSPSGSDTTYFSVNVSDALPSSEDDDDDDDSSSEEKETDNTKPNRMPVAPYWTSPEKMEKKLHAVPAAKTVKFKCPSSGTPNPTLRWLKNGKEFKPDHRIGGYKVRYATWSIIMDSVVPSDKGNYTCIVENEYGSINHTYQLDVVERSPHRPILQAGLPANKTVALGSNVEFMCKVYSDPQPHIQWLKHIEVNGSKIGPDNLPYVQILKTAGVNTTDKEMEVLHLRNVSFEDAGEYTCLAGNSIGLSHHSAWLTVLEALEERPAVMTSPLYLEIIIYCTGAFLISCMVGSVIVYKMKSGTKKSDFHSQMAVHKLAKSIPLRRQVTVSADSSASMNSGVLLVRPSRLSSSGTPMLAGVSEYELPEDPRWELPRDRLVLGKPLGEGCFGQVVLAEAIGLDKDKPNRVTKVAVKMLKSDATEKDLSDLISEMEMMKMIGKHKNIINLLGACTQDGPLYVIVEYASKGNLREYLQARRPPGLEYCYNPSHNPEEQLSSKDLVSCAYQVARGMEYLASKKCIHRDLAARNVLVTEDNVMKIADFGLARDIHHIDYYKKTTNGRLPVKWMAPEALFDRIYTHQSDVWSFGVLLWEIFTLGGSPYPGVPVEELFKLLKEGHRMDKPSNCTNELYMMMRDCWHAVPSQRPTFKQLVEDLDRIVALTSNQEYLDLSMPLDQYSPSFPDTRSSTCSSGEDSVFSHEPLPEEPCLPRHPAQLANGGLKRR

Chain of FGFR3 (P22607 23-806): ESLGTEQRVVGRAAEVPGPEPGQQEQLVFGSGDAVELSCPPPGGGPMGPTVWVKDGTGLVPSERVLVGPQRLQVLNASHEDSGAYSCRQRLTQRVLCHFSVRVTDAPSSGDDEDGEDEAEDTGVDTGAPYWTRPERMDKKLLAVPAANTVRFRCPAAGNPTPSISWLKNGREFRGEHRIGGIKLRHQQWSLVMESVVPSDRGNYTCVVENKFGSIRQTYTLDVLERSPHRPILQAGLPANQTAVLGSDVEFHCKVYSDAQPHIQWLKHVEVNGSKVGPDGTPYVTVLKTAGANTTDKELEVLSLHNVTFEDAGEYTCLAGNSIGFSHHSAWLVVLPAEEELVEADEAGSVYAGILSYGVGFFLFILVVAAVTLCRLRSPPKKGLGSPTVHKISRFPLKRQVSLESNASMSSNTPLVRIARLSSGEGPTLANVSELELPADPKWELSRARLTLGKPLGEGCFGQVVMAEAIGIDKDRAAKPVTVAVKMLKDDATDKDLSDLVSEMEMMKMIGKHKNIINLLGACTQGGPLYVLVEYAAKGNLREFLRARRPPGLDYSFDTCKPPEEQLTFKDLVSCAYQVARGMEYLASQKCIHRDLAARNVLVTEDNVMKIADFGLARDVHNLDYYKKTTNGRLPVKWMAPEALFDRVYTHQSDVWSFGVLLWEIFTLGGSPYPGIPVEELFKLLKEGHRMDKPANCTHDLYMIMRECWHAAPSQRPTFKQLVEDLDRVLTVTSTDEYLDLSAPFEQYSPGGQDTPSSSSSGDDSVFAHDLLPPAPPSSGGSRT
Chain of FGFR4 (P22455 22-802): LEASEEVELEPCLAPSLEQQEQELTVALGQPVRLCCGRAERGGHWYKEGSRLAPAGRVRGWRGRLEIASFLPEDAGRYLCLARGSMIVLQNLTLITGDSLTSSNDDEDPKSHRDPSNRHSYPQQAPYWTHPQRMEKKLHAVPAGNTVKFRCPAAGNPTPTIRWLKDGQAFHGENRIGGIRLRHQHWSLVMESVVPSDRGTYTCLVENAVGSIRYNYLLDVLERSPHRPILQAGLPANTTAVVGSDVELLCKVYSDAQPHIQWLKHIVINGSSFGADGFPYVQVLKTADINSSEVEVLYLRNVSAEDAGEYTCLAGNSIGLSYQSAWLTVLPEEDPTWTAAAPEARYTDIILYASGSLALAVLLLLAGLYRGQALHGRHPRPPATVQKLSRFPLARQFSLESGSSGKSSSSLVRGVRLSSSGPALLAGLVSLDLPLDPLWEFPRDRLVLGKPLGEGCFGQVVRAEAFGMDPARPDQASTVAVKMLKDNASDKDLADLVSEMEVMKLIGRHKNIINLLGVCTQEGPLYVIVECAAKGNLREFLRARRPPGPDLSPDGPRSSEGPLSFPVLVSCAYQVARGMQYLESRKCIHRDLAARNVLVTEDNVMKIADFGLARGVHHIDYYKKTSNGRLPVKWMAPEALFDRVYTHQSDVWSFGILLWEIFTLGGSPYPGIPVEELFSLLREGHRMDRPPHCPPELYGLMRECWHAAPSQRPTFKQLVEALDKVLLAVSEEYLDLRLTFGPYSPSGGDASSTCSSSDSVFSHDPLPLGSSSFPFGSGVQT
Chain of FGFR2 (P21802 22-821): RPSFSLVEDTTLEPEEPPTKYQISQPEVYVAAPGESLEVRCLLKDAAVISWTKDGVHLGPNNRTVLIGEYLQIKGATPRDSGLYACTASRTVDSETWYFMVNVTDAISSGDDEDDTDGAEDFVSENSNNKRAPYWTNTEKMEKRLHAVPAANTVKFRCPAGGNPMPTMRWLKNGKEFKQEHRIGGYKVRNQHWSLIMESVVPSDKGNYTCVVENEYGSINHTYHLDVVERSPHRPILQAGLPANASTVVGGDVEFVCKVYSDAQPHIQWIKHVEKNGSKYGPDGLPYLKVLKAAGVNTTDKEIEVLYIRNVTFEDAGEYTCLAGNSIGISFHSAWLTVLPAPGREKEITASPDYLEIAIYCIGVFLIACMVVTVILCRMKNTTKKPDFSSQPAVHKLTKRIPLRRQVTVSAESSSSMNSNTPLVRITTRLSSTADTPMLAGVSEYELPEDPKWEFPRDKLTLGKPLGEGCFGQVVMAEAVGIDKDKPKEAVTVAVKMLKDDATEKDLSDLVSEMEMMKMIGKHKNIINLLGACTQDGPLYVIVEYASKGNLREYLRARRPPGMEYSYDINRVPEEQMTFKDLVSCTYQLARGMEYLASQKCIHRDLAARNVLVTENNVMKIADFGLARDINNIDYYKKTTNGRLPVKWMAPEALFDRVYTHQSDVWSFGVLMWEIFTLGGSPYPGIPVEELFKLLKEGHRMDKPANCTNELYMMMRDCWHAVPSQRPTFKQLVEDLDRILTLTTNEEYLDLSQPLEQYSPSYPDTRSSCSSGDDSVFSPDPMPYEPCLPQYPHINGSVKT

COc1cc(OC)cc(N(CCNC(C)C)c2ccc3nnc(-c4cnn(C)c4)cc3c2)c1 [Example 1, N^1-(3,5-Dimethoxyphenyl)-N^2-isopropyl-N^1-(3-(1-methyl-1H-pyrazol-4-yl)cinnolin-6-yl)ethane-1,2-diamine]
IC50 [1]: 7.6 nM
IC50 [2]: 11 nM
IC50 [3]: 4.3 nM
IC50 [4]: 7.3 nM

Source: patent US20240002365A1, “PYRIDAZINE AND 1,2,4-TRIAZINE DERIVATIVES AS FGFR KINASE INHIBITORS” (BETA PHARMA, INC., priority 2020, published 2024)
